Results published in PubChem BioAssay AID1259407 (Chemical Carcinogenesis Research Information System (CCRIS), 2018).
Calls of active or inactive are those of the source. How the calls were made is not given here.

System: CCRIS mutagenicity, Ames/micronucleus/aberration tests
Test: CCRIS mutagenicity studies
[1] = Test System: AMES SALMONELLA TYPHIMURIUM, Strain/Indicator: TA98, Metabolic Activation: HAMSTER, LIVER, S-9, AROCLOR 1254 (10%), Method: PREINCUBATION
[2] = Test System: AMES SALMONELLA TYPHIMURIUM, Strain/Indicator: TA98, Metabolic Activation: NONE, Method: PREINCUBATION
[3] = Test System: AMES SALMONELLA TYPHIMURIUM, Strain/Indicator: TA98, Metabolic Activation: RAT, LIVER, S-9, AROCLOR 1254 (10%), Method: PREINCUBATION
[4] = Test System: AMES SALMONELLA TYPHIMURIUM, Strain/Indicator: TA100, Metabolic Activation: HAMSTER, LIVER, S-9, AROCLOR 1254 (10%), Method: PREINCUBATION
[5] = Test System: AMES SALMONELLA TYPHIMURIUM, Strain/Indicator: TA100, Metabolic Activation: NONE, Method: PREINCUBATION
[6] = Test System: AMES SALMONELLA TYPHIMURIUM, Strain/Indicator: TA100, Metabolic Activation: RAT, LIVER, S-9, AROCLOR 1254 (10%), Method: PREINCUBATION
[7] = Test System: AMES SALMONELLA TYPHIMURIUM, Strain/Indicator: TA1535, Metabolic Activation: HAMSTER, LIVER, S-9, AROCLOR 1254 (10%), Method: PREINCUBATION
[8] = Test System: AMES SALMONELLA TYPHIMURIUM, Strain/Indicator: TA1535, Metabolic Activation: NONE, Method: PREINCUBATION
[9] = Test System: AMES SALMONELLA TYPHIMURIUM, Strain/Indicator: TA1535, Metabolic Activation: RAT, LIVER, S-9, AROCLOR 1254 (10%), Method: PREINCUBATION
[10] = Test System: AMES SALMONELLA TYPHIMURIUM, Strain/Indicator: TA1537, Metabolic Activation: NONE, Method: PREINCUBATION
[11] = Test System: AMES SALMONELLA TYPHIMURIUM, Strain/Indicator: TA98, Metabolic Activation: NONE, Method: STANDARD PLATE
[12] = Test System: AMES SALMONELLA TYPHIMURIUM, Strain/Indicator: TA100, Metabolic Activation: NONE, Method: STANDARD PLATE
[13] = Test System: AMES SALMONELLA TYPHIMURIUM, Strain/Indicator: TA100, Metabolic Activation: RAT, LIVER, S-9, AROCLOR 1254, Method: STANDARD PLATE
[14] = Test System: AMES SALMONELLA TYPHIMURIUM, Strain/Indicator: TA1535, Metabolic Activation: NONE, Method: STANDARD PLATE

## CCCCCCC(=O)O
Test System: AMES SALMONELLA TYPHIMURIUM, Strain/Indicator: TA97, Metabolic Activation: HAMSTER, LIVER, S-9, AROCLOR 1254 (10%), Method: PREINCUBATION
  mutagenic call: inactive; negative
Test System: AMES SALMONELLA TYPHIMURIUM, Strain/Indicator: TA97, Metabolic Activation: HAMSTER, LIVER, S-9, AROCLOR 1254 (30%), Method: PREINCUBATION
  mutagenic call: inactive; negative
Test System: AMES SALMONELLA TYPHIMURIUM, Strain/Indicator: TA97, Metabolic Activation: NONE, Method: PREINCUBATION
  mutagenic call: inactive; negative
Test System: AMES SALMONELLA TYPHIMURIUM, Strain/Indicator: TA97, Metabolic Activation: RAT, LIVER, S-9, AROCLOR 1254 (10%), Method: PREINCUBATION
  mutagenic call: inactive; negative
Test System: AMES SALMONELLA TYPHIMURIUM, Strain/Indicator: TA97, Metabolic Activation: RAT, LIVER, S-9, AROCLOR 1254 (30%), Method: PREINCUBATION
  mutagenic call: inactive; negative
[1]
  mutagenic call: inactive; negative
Test System: AMES SALMONELLA TYPHIMURIUM, Strain/Indicator: TA98, Metabolic Activation: HAMSTER, LIVER, S-9, AROCLOR 1254 (30%), Method: PREINCUBATION
  mutagenic call: inactive; negative
[2]
  mutagenic call: inactive; negative
[3]
  mutagenic call: inactive; negative
Test System: AMES SALMONELLA TYPHIMURIUM, Strain/Indicator: TA98, Metabolic Activation: RAT, LIVER, S-9, AROCLOR 1254 (30%), Method: PREINCUBATION
  mutagenic call: inactive; negative
[4]
  mutagenic call: inactive; negative
Test System: AMES SALMONELLA TYPHIMURIUM, Strain/Indicator: TA100, Metabolic Activation: HAMSTER, LIVER, S-9, AROCLOR 1254 (30%), Method: PREINCUBATION
  mutagenic call: inactive; negative
[5]
  mutagenic call: inactive; negative
[6]
  mutagenic call: inactive; negative
Test System: AMES SALMONELLA TYPHIMURIUM, Strain/Indicator: TA100, Metabolic Activation: RAT, LIVER, S-9, AROCLOR 1254 (30%), Method: PREINCUBATION
  mutagenic call: inactive; negative
[7]
  mutagenic call: inactive; negative
Test System: AMES SALMONELLA TYPHIMURIUM, Strain/Indicator: TA1535, Metabolic Activation: HAMSTER, LIVER, S-9, AROCLOR 1254 (30%), Method: PREINCUBATION
  mutagenic call: inactive; negative
[8]
  mutagenic call: inactive; negative
[9]
  mutagenic call: inactive; negative
Test System: AMES SALMONELLA TYPHIMURIUM, Strain/Indicator: TA1535, Metabolic Activation: RAT, LIVER, S-9, AROCLOR 1254 (30%), Method: PREINCUBATION
  mutagenic call: inactive; negative
Test System: AMES SALMONELLA TYPHIMURIUM, Strain/Indicator: TA1537, Metabolic Activation: HAMSTER, LIVER, S-9, AROCLOR 1254 (30%), Method: PREINCUBATION
  mutagenic call: inactive; negative
[10]
  mutagenic call: inactive; negative
Test System: AMES SALMONELLA TYPHIMURIUM, Strain/Indicator: TA1537, Metabolic Activation: RAT, LIVER, S-9, AROCLOR 1254 (30%), Method: PREINCUBATION
  mutagenic call: inactive; negative

## Nc1nc(-c2ccc([N+](=O)[O-])o2)cs1
Test System: AMES SALMONELLA TYPHIMURIUM, Strain/Indicator: TA100, Metabolic Activation: RAT, LIVER, S-9, KC500 OR PHENOBARBITAL, Method: LIQUID SUSPENSION
  mutagenic call: active; positive
Test System: E. COLI WP2, Strain/Indicator: WP2, Metabolic Activation: NONE, Method: SPOT
  mutagenic call: active; positive

## O=C1c2c(O)ccc([N+](=O)[O-])c2C(=O)c2c([N+](=O)[O-])ccc(O)c21
[1]
  mutagenic call: active; positive
[2]
  mutagenic call: active; positive
[11]
  mutagenic call: active; positive
[3]
  mutagenic call: active; positive
Test System: AMES SALMONELLA TYPHIMURIUM, Strain/Indicator: TA98, Metabolic Activation: RAT, LIVER, S-9, AROCLOR 1254, Method: STANDARD PLATE
  mutagenic call: active; positive
[4]
  mutagenic call: active; positive
[5]
  mutagenic call: active; positive
[12]
  mutagenic call: active; positive
[6]
  mutagenic call: active; positive
[13]
  mutagenic call: active; positive
[7]
  mutagenic call: active; positive
[8]
  mutagenic call: active; positive
[14]
  mutagenic call: inactive; negative
[9]
  mutagenic call: active; positive
Test System: AMES SALMONELLA TYPHIMURIUM, Strain/Indicator: TA1537, Metabolic Activation: HAMSTER, LIVER, S-9, AROCLOR 1254 (10%), Method: PREINCUBATION
  mutagenic call: active; positive
[10]
  mutagenic call: active; positive
Test System: AMES SALMONELLA TYPHIMURIUM, Strain/Indicator: TA1537, Metabolic Activation: NONE, Method: STANDARD PLATE
  mutagenic call: active; positive
Test System: AMES SALMONELLA TYPHIMURIUM, Strain/Indicator: TA1537, Metabolic Activation: RAT, LIVER, S-9, AROCLOR 1254 (10%), Method: PREINCUBATION
  mutagenic call: active; positive
Test System: AMES SALMONELLA TYPHIMURIUM, Strain/Indicator: TA1537, Metabolic Activation: RAT, LIVER, S-9, AROCLOR 1254, Method: STANDARD PLATE
  mutagenic call: active; positive
Test System: AMES SALMONELLA TYPHIMURIUM, Strain/Indicator: TA1538, Metabolic Activation: NONE, Method: STANDARD PLATE
  mutagenic call: active; positive
Test System: AMES SALMONELLA TYPHIMURIUM, Strain/Indicator: TA1538, Metabolic Activation: RAT, LIVER, S-9, AROCLOR 1254, Method: STANDARD PLATE
  mutagenic call: active; positive
Test System: AMES SALMONELLA TYPHIMURIUM, Strain/Indicator: TA1978, Metabolic Activation: NONE, Method: STANDARD PLATE
  mutagenic call: active; positive
Test System: AMES SALMONELLA TYPHIMURIUM, Strain/Indicator: TA1978, Metabolic Activation: RAT, LIVER, S-9, AROCLOR 1254, Method: STANDARD PLATE
  mutagenic call: active; positive

## CSCCCCC(=NOS(=O)(=O)O)S[C@@H]1O[C@H](CO)[C@@H](O)[C@H](O)[C@H]1O
End Point: IN VITRO MICRONUCLEUS, Test System: HUMAN T-LYMPHOCYTES, Metabolic Activation: NONE
  mutagenic call: inactive; negative

## Cc1cccc2cc3c(ccc4ccccc43)cc12
Test System: AMES SALMONELLA TYPHIMURIUM, Strain/Indicator: TA100, Metabolic Activation: RAT, INTACT HEPATOCYTES, AROCLOR 1254, Method: PREINCUBATION
  mutagenic call: active; positive
Test System: AMES SALMONELLA TYPHIMURIUM, Strain/Indicator: TA100, Metabolic Activation: RAT, NADPH-FORTIFIED HOMOGENIZED HEPATOCYTES, AROCLOR 1254, Method: PREINCUBATION
  mutagenic call: active; positive
Test System: AMES SALMONELLA TYPHIMURIUM, Strain/Indicator: TA100, Metabolic Activation: RAT, SONICATED HEPATOCYTES, AROCLOR 1254, Method: PREINCUBATION
  mutagenic call: active; positive

## O=C(O)c1oc([N+](=O)[O-])c(-c2ccccc2)c1-c1ccccc1
[11]
  mutagenic call: inactive; negative
[12]
  mutagenic call: active; positive

## C1=C/CCC2OC2CC/C=C/CC/1 (configuration not stated)
[12]
  mutagenic call: inactive; negative
[13]
  mutagenic call: inactive; negative
[14]
  mutagenic call: inactive; negative
Test System: AMES SALMONELLA TYPHIMURIUM, Strain/Indicator: TA1535, Metabolic Activation: RAT, LIVER, S-9, AROCLOR 1254, Method: STANDARD PLATE
  mutagenic call: inactive; negative

## Cc1ccc(NO)cc1
Test System: AMES SALMONELLA TYPHIMURIUM, Strain/Indicator: TA98, Metabolic Activation: RAT, LIVER, S-9, AROCLOR 1254, Method: PREINCUBATION
  mutagenic call: inactive; negative
[5]
  mutagenic call: active; positive
Test System: AMES SALMONELLA TYPHIMURIUM, Strain/Indicator: TA100, Metabolic Activation: RAT, LIVER, S-9, PCB, Method: PREINCUBATION
  mutagenic call: active; positive
Test System: E. COLI, Strain/Indicator: WP2 UVRA, Metabolic Activation: NONE, Method: FLUCTUATION TEST
  mutagenic call: active; positive
